Reference: publication PMC3574224, “Na^+ Regulation in the Malaria Parasite Plasmodiumfalciparum Involves the Cation ATPase PfATP4 and Is a Target of the Spiroindolone Antimalarials” (Cell Host & Microbe, 2013)

Test system: P. falciparum Dd2 parent
Test: Parasite proliferation, [^3H]hypoxanthine incorporation, Dd2 parent
Assay type: cell-based
Settings: Plasmodium falciparum, DD2, read-out: IC50 for inhibition of parasite proliferation by NITD246
Description: Parasite growth assays were performed in 96-well plates over 48 hr (commencing at the ring stage) using a standard [^3H]hypoxanthine incorporation assay ([Desjardins et al., 1979]).
Dose-response curves were obtained using the expression y = y^min + y^max/(1 + [C/IC50]^b), where y is the parameter being measured (parasite proliferation, Na^+ influx, or ATPase activity), y^min is the minimum value of y, y^max is the maximum value of y, C is the concentration of the moiety that was varied in the experiment, IC50 is the concentration at which y was reduced to 50% of y^max, and b is a fitted constant.

Compound: C[C@H]1Cc2c([nH]c3cc(F)c(F)cc23)[C@@]2(N1)C(=O)Nc1ccc(Cl)cc12 [NITD246]
- IC50: 0.08 ± 0.01 nM
